Laboratory results as given in patent US20240083872A1, “CYCLIC AMINE DERIVATIVES HAVING SEROTONIN RECEPTOR BINDING ACTIVITY” (Shionogi & Co., Ltd., priority 2020, published 2024).
Read-outs that look alike come from different tables or passages of the source.

What was measured:
[1] = molecular target: human recombinant 5-HT2A receptor (Homo sapiens (Human), UniProt P28223); assay: 5-HT2A receptor binding inhibition test ([3H]-Ketanserin); details: Jump-In HEK cell membrane
Procedure, shortened: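 HEK cell membranes expressing human recombinant receptor were incubated with [3H]-ketanserin near its Kd in Tris-HCl 50 mmol/L pH 7.4 buffer (0.1% BSA) for 1.5 h at 25° C, then filtered on GF/B. Non-specific binding was defined with […] serotonin; Ki came from dose-response curves.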

[2] = molecular target: human recombinant 5-HT2C receptor (Homo sapiens (Human), UniProt P28335); assay: 5-HT2C receptor binding inhibition test ([3H]-Mesulergine); details: Jump-In HEK cell membrane, [3H]-Mesulergine
Chain of human recombinant 5-HT2C receptor (P28335 33-458): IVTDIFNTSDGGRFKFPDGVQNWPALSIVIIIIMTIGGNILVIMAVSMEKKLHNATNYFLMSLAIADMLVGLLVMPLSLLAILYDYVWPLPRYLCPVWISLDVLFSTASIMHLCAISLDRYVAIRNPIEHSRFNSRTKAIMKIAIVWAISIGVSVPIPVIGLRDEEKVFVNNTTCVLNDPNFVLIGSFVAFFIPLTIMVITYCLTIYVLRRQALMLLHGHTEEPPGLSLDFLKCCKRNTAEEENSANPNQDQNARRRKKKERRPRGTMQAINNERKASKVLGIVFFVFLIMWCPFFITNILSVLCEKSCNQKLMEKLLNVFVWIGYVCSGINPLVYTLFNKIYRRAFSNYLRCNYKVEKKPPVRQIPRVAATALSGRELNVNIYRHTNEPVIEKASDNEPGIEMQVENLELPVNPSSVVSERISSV

Metabolic stability test = type: in vitro ADME; details: human hepatic microsomes, 0.5 μmol/L, 30 minutes, 37° C., NADPH (oxidative reaction)
Description: Test Example 6-2: Metabolic Stability Test
Using commercially available pooled human hepatic microsomes, a compound according to the present invention was reacted for a constant time, and a remaining rate was calculated by comparing a reacted sample and an unreacted sample, thereby, a degree of metabolism of the compound according to the present invention in liver was evaluated.
A reaction was performed (oxidative reaction) at 37° C. for 0 minutes or 30 minutes in the presence of 1 mmol/L NADPH in 0.2 mL of a buffer (50 mmol/L Tris-HCl pH 7.4, 150 mmol/L potassium chloride, 10 mmol/L magnesium chloride) containing 0.5 mg protein/mL of human hepatic microsomes. After the reaction, 70 μL of the reaction solution was added to 140 μL of a solution of methanol/acetonitrile=1/1 (v/v), mixed and centrifuged at 3000 rpm for 15 minutes. The compound according to the present invention in the supernatant was quantified by LC/MS/MS or Solid Phase Extraction (SPE)/MS, and a remaining rate of the compound according to the present invention after the reaction was calculated, letting a compound amount at 0 minute reaction time be 100%.

[3] = molecular target: human ether-a-go-go related gene (hERG) channel (Homo sapiens (Human), UniProt Q12809); assay: hERG test (FluxOR potassium channel assay, FLIPR); type: cell-based; details: CHO cells expressing hERG channel, thallium flux fluorescence
Chain of human ether-a-go-go related gene (hERG) channel (Q12809 whole entry): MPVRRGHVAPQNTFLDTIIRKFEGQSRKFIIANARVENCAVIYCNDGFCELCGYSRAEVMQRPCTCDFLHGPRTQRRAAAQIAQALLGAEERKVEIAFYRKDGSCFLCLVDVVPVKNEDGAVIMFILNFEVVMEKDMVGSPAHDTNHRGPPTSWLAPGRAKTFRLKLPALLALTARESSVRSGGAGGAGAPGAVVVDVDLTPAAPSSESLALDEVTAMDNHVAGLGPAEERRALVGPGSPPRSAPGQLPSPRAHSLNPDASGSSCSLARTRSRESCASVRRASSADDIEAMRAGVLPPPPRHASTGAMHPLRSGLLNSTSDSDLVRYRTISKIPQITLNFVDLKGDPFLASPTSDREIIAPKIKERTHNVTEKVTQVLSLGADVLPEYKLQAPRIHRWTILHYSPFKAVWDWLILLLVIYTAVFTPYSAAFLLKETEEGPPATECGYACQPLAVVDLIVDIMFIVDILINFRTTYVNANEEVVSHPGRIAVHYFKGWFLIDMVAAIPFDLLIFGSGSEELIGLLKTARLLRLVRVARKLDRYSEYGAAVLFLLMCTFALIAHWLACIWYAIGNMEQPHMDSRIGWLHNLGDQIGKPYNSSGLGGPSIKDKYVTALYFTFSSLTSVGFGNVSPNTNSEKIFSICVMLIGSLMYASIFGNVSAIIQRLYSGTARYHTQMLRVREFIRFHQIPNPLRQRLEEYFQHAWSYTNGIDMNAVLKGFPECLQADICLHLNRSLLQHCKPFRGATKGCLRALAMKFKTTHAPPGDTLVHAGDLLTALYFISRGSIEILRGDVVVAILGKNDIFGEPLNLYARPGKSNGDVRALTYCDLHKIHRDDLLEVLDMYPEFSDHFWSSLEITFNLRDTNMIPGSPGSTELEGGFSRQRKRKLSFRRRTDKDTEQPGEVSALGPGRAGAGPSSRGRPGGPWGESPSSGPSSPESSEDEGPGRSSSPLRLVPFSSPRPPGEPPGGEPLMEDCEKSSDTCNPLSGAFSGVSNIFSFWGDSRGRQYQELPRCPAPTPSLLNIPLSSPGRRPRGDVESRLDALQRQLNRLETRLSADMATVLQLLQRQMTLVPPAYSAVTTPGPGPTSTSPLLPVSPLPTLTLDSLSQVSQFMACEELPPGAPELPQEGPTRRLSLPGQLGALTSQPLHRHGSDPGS
Description: Test Example 3-2: hERG Test
For the purpose of evaluating risk of an electrocardiogram QT interval prolongation of the compound of the present invention, effects of the compound were studied by evaluating the activity of potassium channel using CHO cells expressing human ether-a-go-go related gene (hERG) channel.
Evaluation was performed using a FluxORII Green Potassium IonCgannel Assay kit (Invitrogen: Molecular Probes).
Cells were seeded in a 384-assay plate (8000 cells/well/40 μL) and incubated (37° C., 5% CO2) overnight. After replacing the medium with a Wash buffer (1×HBSS, 20 mM HEPES) with a microplate washer, a fluorescent indicator was added to the medium and allowed to incubate (37° C., 5% CO2) for 1 hour for incorporation of the fluorescent indicator into cells.
A cell plate was placed on a cell-based kinetic assay system FLIPR (Molecular Devices, LLC.), and the compound was added to the cells so as to have a desired concentration and reacted for 10 minutes. When a mixed solution of potassium and thallium as a stimulator was added thereto, the potassium channel was opened, and thallium that flowed into the cells bound to the fluorescent indicator, so that the intracellular fluorescence signal increased, and the potassium channel current was detected as a fluorescence signal. […] Then, the inhibition rate was calculated from the signal intensity at each concentration. IC50 was calculated from the inhibition rate at each concentration.

[4] = read-out: human serotonin 5-HT2A receptor binding activity, Ki value
[5] = read-out: human serotonin 5-HT2C receptor binding inhibitory activity, Ki value

Chain of human recombinant 5-HT2A receptor (P28223 whole entry): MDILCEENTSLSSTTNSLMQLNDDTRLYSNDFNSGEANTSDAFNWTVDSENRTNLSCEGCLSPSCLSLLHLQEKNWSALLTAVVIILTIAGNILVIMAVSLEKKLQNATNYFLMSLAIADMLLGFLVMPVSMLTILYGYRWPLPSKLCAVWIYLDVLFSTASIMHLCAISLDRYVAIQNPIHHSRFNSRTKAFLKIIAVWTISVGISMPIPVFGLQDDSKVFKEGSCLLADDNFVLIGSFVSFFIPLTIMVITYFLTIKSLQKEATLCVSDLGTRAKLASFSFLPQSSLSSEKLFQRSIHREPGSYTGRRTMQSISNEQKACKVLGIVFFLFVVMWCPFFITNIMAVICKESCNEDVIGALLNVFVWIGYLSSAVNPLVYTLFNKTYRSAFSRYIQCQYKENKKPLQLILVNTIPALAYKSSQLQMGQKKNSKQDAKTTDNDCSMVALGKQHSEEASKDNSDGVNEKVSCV

SMILES	Ki ([1]; read-out: h-5-HT2A Ki) [nM]	Ki ([2]; read-out: h-5-HT2C Ki) [nM]	remaining rate of the compound (Metabolic stability test) [%]	Ki [1, 4] [nM]	Ki [2, 5] [nM]	IC50 [3] [nM]
CC(C)COc1ccc(CN(Cc2ccc(F)cn2)C(=O)NC2CCN(C)CC2)cc1 [Compound I-016]	< 10	< 10	99.6	–	–	–
CC(C)COc1ccc(CN(Cc2ccn(C)n2)C(=O)N[C@H]2CCNCC23CC3)cc1 [Compound I-028]	< 10	< 10	90.2	–	–	–
CC(C)COc1ccc(CN(Cc2ccn(C)n2)C(=O)NC2CCN(C)CC2)cc1 [Compound I-043]	–	–	85.0	2.14	3.07	–
Cc1nc(CN(Cc2ccc(OCC(C)C)cc2)C(=O)NC2CCN(C)CC2)co1 [Compound I-077]	< 10	< 10	85.3	–	–	–
Cc1nc(CN(Cc2ccc(OCC(C)C)cc2)C(=O)OC2CCN(C)CC2)co1 [Compound I-081]	< 10	< 10	–	–	–	> 52000
CC(C)COc1ccc(CN(Cc2ccn(C)n2)C(=O)OC2CCN(C)CC2)cc1 [Compound I-082]	10 to 100	10 to 100	–	–	–	> 52000
Cc1cc(CN(Cc2ccc(OCC(C)C)cc2)C(=O)OC2CCN(C)CC2)nn1C [Compound I-083]	10 to 100	–	–	–	–	> 52000

Further lines, with some results ahead:

Ki ([1]; read-out: h-5-HT2A Ki) [nM]	Ki ([2]; read-out: h-5-HT2C Ki) [nM]	remaining rate of the compound (Metabolic stability test) [%]	Ki [1, 4] [nM]	Ki [2, 5] [nM]	SMILES	IC50 [3] [nM]
–	–	–	2.61	5.78	CC(C)COc1ccc(CN(Cc2cnn(C)n2)C(=O)OC2CCN(C)CC2)cc1 [Compound I-084]	> 52000
–	–	75.5	0.503	0.241	CCCCOc1ccc(CN(Cc2coc(C)n2)C(=O)NC2CCN(C)CC2)cc1 [Compound I-086]	–
< 10	< 10	80.0	–	–	Cc1nc(CN(Cc2ccc(OCC(F)(F)C(F)(F)F)cc2)C(=O)NC2CCN(C)CC2)co1 [Compound I-088]	–
< 10	< 10	–	–	–	CCCCOc1ccc(CN(Cc2coc(C)n2)C(=O)CC2CCN(C)CC2)cc1 [Compound I-099]	46800
–	–	97.3	0.642	0.412	CCCCOc1ccc(CN(Cc2cnn(C)n2)C(=O)NC2CCN(C)CC2)c(F)c1 [Compound I-102]	–
